What was measured:
Experiment in all cases: relative viability (nuclei count vs DMSO), 5 days (fraction); higher = more cells survive
Midostaurin = compound: CO[C@@H]1[C@H](N(C)C(=O)c2ccccc2)C[C@H]2O[C@]1(C)n1c3ccccc3c3c4c(c5c6ccccc6n2c5c31)C(=O)NC4 [Midostaurin]
Summary of the method: (§1)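 Lung cancer cell lines in 1536-well plates were kept overnight at 37 °C, then pinned with five library-drug doses (not always all listed) spaced by √10 on vehicle-anchored plates. After 5 days without medium change, cells were fixed, permeabilised and Hoechst-stained in one step, imaged at 4×, and nuclei were counted with MetaXpress. Viability is treated-well nuclei divided by vehicle-well nuclei, taken as the median over plates. Plates passed only with control CV below 25% and at least one doubling.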

[1] = compound: COc1cc(-c2nn([C@H]3CC[C@H](N4CCN(C(C)=O)CC4)CC3)c3ncnc(N)c23)ccc1NC(=O)c1cc2ccccc2n1C
Summary of the method: as §1

Midostaurin + Navitoclax = compound: CO[C@@H]1[C@H](N(C)C(=O)c2ccccc2)C[C@H]2O[C@]1(C)n1c3ccccc3c3c4c(c5c6ccccc6n2c5c31)C(=O)NC4 [Midostaurin] + CC1(C)CCC(c2ccc(Cl)cc2)=C(CN2CCN(c3ccc(C(=O)NS(=O)(=O)c4ccc(N[C@H](CCN5CCOCC5)CSc5ccccc5)c(S(=O)(=O)C(F)(F)F)c4)cc3)CC2)C1 [Navitoclax] (partner 0.5 µM)
Summary of the method: (§2)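 For relative viability, nuclei counts in treated wells were divided by those in vehicle wells. Lung cancer cell lines had been pin-tool dosed in 1536-well plates the day after seeding and cultured for 5 days, then fixed and stained in one step (final 0.05% Triton X-100, 1% formaldehyde, 1 ug/ml Hoechst) and imaged at 4×. Doses were one drug alone or a fixed anchor-drug dose plus five library-drug doses (not always all listed) in √10 steps, and values are duplicate-plate medians.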

[2] = compound: COc1cc(-c2nn([C@H]3CC[C@H](N4CCN(C(C)=O)CC4)CC3)c3ncnc(N)c23)ccc1NC(=O)c1cc2ccccc2n1C + CC(=O)Nc1cccc(-n2c(=O)n(C3CC3)c(=O)c3c(Nc4ccc(I)cc4F)n(C)c(=O)c(C)c32)c1 [Trametinib] (partner 0.02 µM)
Summary of the method: as §2

Midostaurin + Foretinib = compound: CO[C@@H]1[C@H](N(C)C(=O)c2ccccc2)C[C@H]2O[C@]1(C)n1c3ccccc3c3c4c(c5c6ccccc6n2c5c31)C(=O)NC4 [Midostaurin] + COc1cc2c(Oc3ccc(NC(=O)C4(C(=O)Nc5ccc(F)cc5)CC4)cc3F)ccnc2cc1OCCCN1CCOCC1 [Foretinib] (partner 0.25 µM)
Summary of the method: as §2

Cell Line	relative viability (Midostaurin; 0.01 µM)	relative viability (Midostaurin; 0.03162 µM)	relative viability (Midostaurin; 0.1 µM)	relative viability (Midostaurin; 0.3162 µM)	relative viability ([1]; 0.0128 µM)	relative viability ([1]; 0.04048 µM)	relative viability ([1]; 0.128 µM)	relative viability ([1]; 1.28 µM)	relative viability (Midostaurin + Navitoclax; first compound 0.01 µM)	relative viability (Midostaurin + Navitoclax; first compound 0.03162 µM)	relative viability (Midostaurin + Navitoclax; first compound 0.1 µM)	relative viability (Midostaurin + Navitoclax; first compound 0.3162 µM)	relative viability ([2]; first compound 0.0128 µM)	relative viability ([2]; first compound 0.04048 µM)	relative viability ([2]; first compound 0.128 µM)	relative viability ([2]; first compound 1.28 µM)	relative viability (Midostaurin + Foretinib; first compound 0.01 µM)	relative viability (Midostaurin + Foretinib; first compound 0.03162 µM)	relative viability (Midostaurin + Foretinib; first compound 0.1 µM)	relative viability (Midostaurin + Foretinib; first compound 0.3162 µM)
HCC-827	1.02	1.04	0.972	1.04	0.98	1.03	0.957	0.753	1.03	0.987	0.958	1.1	0.574	0.341	0.525	0.286	0.98	1.04	1.01	1.05
NCI-H2347	1.12	0.97	1.06	1.09	1.01	0.781	1.04	1.08	0.771	0.832	0.902	0.889	0.292	0.236	0.263	0.225	1.2	1.13	0.841	1.5
PC-14	0.995	0.988	0.963	0.961	1.09	1.13	0.957	1.08	0.973	1.01	0.985	0.965	0.819	0.721	0.663	0.569	0.984	0.924	0.909	0.899
NCI-H1651	0.95	1	1.01	1.09	0.97	1.07	0.923	0.968	1.01	1.07	0.897	0.898	0.843	0.832	0.79	0.771	0.882	0.819	0.764	0.683
HARA	0.98	0.87	0.974	0.932	1.03	0.828	0.879	0.612	1.13	1.12	1.14	1.14	0.617	0.273	0.56	0.418	0.904	0.887	0.91	0.891
NCI-H1650	0.915	0.957	0.921	0.937	0.922	1.1	0.941	0.812	1.29	1.03	1.08	0.846	0.489	0.448	0.586	0.452	1.16	1.11	0.911	1.19
NCI-H1395	0.919	0.977	0.88	0.922	0.907	0.847	0.798	0.659	1.11	1.09	1.17	1.25	1.02	0.945	0.967	0.667	1.12	1.07	0.992	1.1
LU99A	0.881	1.14	0.887	0.939	1.03	0.84	0.998	0.982	0.819	0.788	0.576	0.792	0.578	0.288	0.529	0.489	0.708	0.854	0.695	0.783
NCI-H1355	1	0.948	1.09	1.04	1.06	0.981	0.943	0.953	0.966	0.924	1.01	0.847	0.416	0.313	0.387	0.447	1.02	0.913	0.817	0.971
HCC-78	1.01	0.814	1.03	0.606	1.06	1.06	0.912	0.567	0.835	0.638	0.815	0.341	0.851	0.536	0.776	0.453	0.65	0.532	0.541	0.555
HCC-15	1.05	0.902	1.05	1.05	1.21	0.785	0.971	1.06	0.721	0.697	0.71	0.704	0.421	0.269	0.394	0.294	1.08	0.856	1.04	1.05
EKVX	0.991	0.886	0.95	1	0.941	1.06	0.987	0.56	0.907	0.955	0.893	0.905	0.406	0.236	0.305	0.236	0.824	0.76	0.702	0.78
NCI-H2087	0.972	0.938	0.985	1.26	1.09	–	1.1	1.11	1	0.98	0.875	0.897	0.209	–	0.207	0.17	1.15	0.942	1.21	0.775
LK-2	0.998	1.04	0.947	1	1	0.949	0.943	0.794	0.831	0.876	0.843	0.825	0.978	0.399	0.577	0.47	1.19	1.36	0.955	1.13
NCI-H1437	0.96	0.999	0.972	0.92	0.979	1.04	0.964	0.906	1.13	1.03	1.07	1.12	0.527	0.609	0.492	0.33	1.26	1.09	1.22	1.22
COR-L23	0.998	0.946	0.958	0.875	1.06	1.1	0.92	1.08	0.99	0.966	0.87	0.925	0.585	0.25	0.564	0.592	1.03	0.954	0.9	0.892
NCI-H838	1	0.927	0.801	0.667	0.953	0.995	0.899	0.728	1.23	1.04	1.02	0.354	0.5	0.479	0.506	0.403	1.05	0.939	0.759	0.497
A-427	0.927	0.879	1.03	0.985	1.05	0.837	0.973	0.863	0.977	0.859	0.883	0.767	0.82	0.462	0.759	0.711	1.06	1.08	0.903	1.03
LCLC-97TM1	1.02	0.867	1.06	1.17	0.943	0.879	0.946	0.931	0.467	–	0.393	0.508	0.22	0.125	0.139	0.133	1	0.937	0.817	0.913
PC-3 [JPC-3]	0.991	0.907	1.07	1.1	1.01	1.09	1.01	1.09	0.752	0.777	0.791	0.851	0.746	0.705	0.678	0.802	1.05	0.942	1.02	0.959
BEN	0.98	0.964	1.03	1.19	0.816	0.985	0.884	0.702	0.0719	0.0568	0.0815	0.064	1.07	0.97	0.953	0.838	0.719	0.803	0.966	0.667
NCI-H1666	1.03	0.953	0.992	0.888	0.98	0.872	0.947	0.941	0.872	0.855	0.84	0.846	0.899	0.835	0.819	0.918	0.881	0.954	0.786	0.754
LC-2-ad	0.97	0.936	0.957	0.892	1.09	0.976	0.959	0.958	0.477	0.405	0.439	0.224	0.956	0.536	0.895	0.895	0.919	0.897	0.914	1.04
SK-LU-1	0.976	1.05	1.02	0.953	1.08	0.994	0.864	0.597	0.703	0.704	0.808	0.886	0.455	0.316	0.432	0.336	0.799	0.869	0.747	0.621
ChaGo-K-1	0.919	1.07	0.932	1.02	1.03	0.98	0.891	0.898	0.909	1.36	0.915	1.25	0.872	0.904	0.722	0.68	0.888	0.99	0.785	0.946
COR-L 105	0.953	0.858	0.828	0.874	0.811	1.09	0.863	0.596	0.733	0.941	0.51	0.862	0.481	0.489	0.412	0.298	1.04	1.04	0.909	1.09
NCI-H1975	0.888	0.971	0.878	0.799	0.958	0.972	0.875	0.479	1.13	1.07	1.04	0.818	0.328	0.293	0.349	0.207	0.925	1.01	0.952	0.647
NCI-H1993	0.948	1.01	1.17	0.802	0.966	0.737	0.834	0.87	0.964	0.901	0.972	0.992	0.504	0.489	0.562	0.481	0.863	0.761	0.765	0.935
RERF-LC-KJ	1.02	1.01	1.04	1.04	1	0.991	0.94	0.896	1.02	1.05	1.19	0.998	0.844	0.818	0.867	0.749	0.915	0.866	0.939	0.936

Source: the supplement of paper PMC10307832
